Patent US6635432B1, “Peptide potentiation of acid-sensory ion channel in pain” (University of Iowa Research Foundation, priority 2000, dated 2003)
Where no end group is shown, it is not given here.

Columns and labels:
Type in all cases: cell-based
[1] = molecular target: T1, ASICα (Homo sapiens, UniProt P78348); assay: Two-electrode voltage-clamp of Xenopus oocytes expressing ASICα; parameters: expressed in transfected cells; host or cells: Xenopus laevis oocytes (nuclear injection of pMT3 plasmid); conditions: for effect on H+-gated ASICα current (inactivation, sustained current): pH 5, agents 50 μM (A18Famide 25 μM), added prior to and during acidification
T1 sequence (P78348 1-528): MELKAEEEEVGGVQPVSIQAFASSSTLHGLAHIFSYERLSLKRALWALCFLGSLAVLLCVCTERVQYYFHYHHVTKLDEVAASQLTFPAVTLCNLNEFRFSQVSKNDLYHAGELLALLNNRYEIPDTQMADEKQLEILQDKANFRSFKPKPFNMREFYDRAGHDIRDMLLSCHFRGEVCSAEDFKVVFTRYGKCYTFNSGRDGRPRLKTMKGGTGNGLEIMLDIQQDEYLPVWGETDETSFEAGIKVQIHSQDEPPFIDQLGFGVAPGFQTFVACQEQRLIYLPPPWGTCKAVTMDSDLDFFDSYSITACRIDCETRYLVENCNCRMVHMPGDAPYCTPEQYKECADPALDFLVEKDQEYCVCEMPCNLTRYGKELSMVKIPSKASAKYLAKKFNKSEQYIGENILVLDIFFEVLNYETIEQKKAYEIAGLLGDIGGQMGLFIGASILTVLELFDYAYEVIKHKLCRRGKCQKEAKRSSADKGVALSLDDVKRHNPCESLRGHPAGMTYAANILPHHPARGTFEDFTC
Text: (§1) Human ASICα was cloned from brain polyA RNA. Rat ASICβ and mouse DRASIC were cloned from DRG RNA. Human BNC1 was cloned as described in Price et al. (1996)(Price, M. P., Snyder, P. M., and Welsh, M. J. (1996). Cloning and expression of a novel human brain Na^+ channel. J Biol Chem 271, 7879-7882). Constructs were cloned into pMT3 for expression.
(§2) Expression of the cDNA constructs in Xenopus oocytes was accomplished by injection of plasmid DNA into the nucleus of defolliculated albino Xenopus laevis oocytes (Nasco, Fort Atkinson, Wis.) as described previously (Adams, C. M., Snyder, P. M., Price, M. P., and Welsh, M. J. (1998). Protons activate brain Na^+ channel 1 by inducing a conformational change that exposes a residue associated with neurodegeneration. J Biol Chem 273, 30204-30207). Plasmids were injected at concentrations of 100 ng/μl for most experiments. Oocytes were incubated in modified Barth's solution at 18° C. for 12-26 hr after injection. Cells injected with DRASIC were allowed to incubate for 24-48 hr before analysis.
Whole-cell currents in oocytes were measured using a two-electrode voltage-clamp as previously described (Adams, et al. (1998)). Oocytes were bathed in frog Ringers solution containing, in mM: 116 NaCl, LiCl or KCl, 0.4 CaCl2, MgCl2, 5 4-(2-hydroxyethyl)-1-piperazineethanesulfonic acid (HEPES), pH 7.4. Acidic solutions were buffered with 5 mM 2-(4-morpholino)-ethanesulfonic acid (MES) instead of HEPES. Membrane voltage was held at −60 mV unless otherwise noted. Most peptides and naloxone were obtained from Sigma Chemical Co. (St. Louis, Mont.) and were added to the extracellular solution. The peptide FRRFamide was synthesized by Research Genetics (Huntsville, Ala.).

[2] = molecular target: T1, ASICα; assay: Whole-cell patch-clamp of HEK-293T cells transfected with ASICα; parameters: expressed in transfected cells; conditions: HEK293 cells; amiloride 100 μM, FMRFamide 100 μM, pH 5
Text: Human ASICα was cloned from brain polyA RNA. Rat ASICβ and mouse DRASIC were cloned from DRG RNA. […] Constructs were cloned into pMT3 for expression.
To identify transfected cells, pGreenlantern vector encoding green fluorescent protein (Gibco, Gaithersburg, Md.) was co-transfected with ASICα at a ratio of 1:6; transfected cells were identified using epifluorescence microscopy. Cells were studied 1-2 days after transfection.
(§3) The pipette solution contained, in mM: 120 KCl, 10 NaCl, 2 MgCl2, 5 EGTA, 10 HEPES. Perfusion of cells with different solutions was done by placing the appropriate outlet in front of the cell. Data were recorded with an AXOPATCH 200 (Axon Instruments, Foster City, Calif.) and stored on a digital tape recorder. Digitization was executed by acquiring data at 400 Hz using pClamp6 (Axon Instruments, Foster City, Calif.).

[3] = test system: proton-gated currents in cultured rat DRG neurons; assay: Whole-cell patch-clamp of proton-gated currents in cultured DRG neurons
Experimental: Rat DRG neurons were cultured from Norway rats as described in Benson et al. (1999)(Benson, C. J., Eckert, S. P., and McCleskey, E. W. (1999). Acid-evoked currents in cardiac sensory neurons: A possible mediator of myocardial ischemic sensation. Circulation Research 84, 921-928). Cells were allowed to incubate overnight at room temperature and studies were done 1 to 2 days after isolation.
as §3, with “During whole-cell patch-clamping of DRG neurons and transfected HEK-293T cells, the cells were bathed with an extracellular solution that contained, in mM: 128 NaCl, 5 MgCl2, 1.8 CaCl2, 5.4 KCl, 5.55 glucose, 20 HEPES, pH 7.5 or 5. The” for “The”
Whole-cell patch-clamp recordings were used to investigate the effect of FMRFamide on proton-gated currents in cultured rat DRG neurons. As previously reported (Akaike, N., and Ueno, S. (1994). Proton-induced current in neuronal cells. Prog Neurobiol 43, 73-83), acidification to pH 5 produced rapidly activating and inactivating currents in the sensory neurons of the DRG (FIGS. 1A-D). […] The presence of the neuropeptide immediately before acidification also altered inactivation (FIGS. 1C, 1D).

[4] = molecular target: T2, DRASIC (Mus musculus, UniProt Q6X1Y6); assay: Two-electrode voltage-clamp of Xenopus oocytes expressing DRASIC; conditions: neuropeptide FF 50 μM added prior to acidification
T2 construct: expressed in transfected cells; host or cells: Xenopus laevis oocytes (nuclear injection of pMT3 plasmid)
T2 sequence (Q6X1Y6 1-530): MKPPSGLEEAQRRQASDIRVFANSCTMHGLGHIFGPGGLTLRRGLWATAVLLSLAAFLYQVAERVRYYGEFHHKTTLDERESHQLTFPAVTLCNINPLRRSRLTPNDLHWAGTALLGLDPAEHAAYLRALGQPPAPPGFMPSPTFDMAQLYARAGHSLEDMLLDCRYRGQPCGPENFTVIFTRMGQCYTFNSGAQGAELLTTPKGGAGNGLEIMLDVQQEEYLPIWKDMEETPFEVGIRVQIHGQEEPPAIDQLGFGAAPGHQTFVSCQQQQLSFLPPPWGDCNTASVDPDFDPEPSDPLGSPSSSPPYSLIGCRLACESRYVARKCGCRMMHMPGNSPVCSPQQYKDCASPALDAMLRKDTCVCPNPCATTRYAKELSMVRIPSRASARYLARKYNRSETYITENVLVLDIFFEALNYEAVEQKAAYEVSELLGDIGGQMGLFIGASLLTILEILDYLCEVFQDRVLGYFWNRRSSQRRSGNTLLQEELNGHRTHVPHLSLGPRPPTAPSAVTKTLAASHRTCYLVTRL
Text: as §1, with “expression. The validity of the constructs was confirmed by DNA sequencing.” for “expression.”
as §2
(§4) Whole-cell currents in oocytes were measured using a two-electrode voltage-clamp as previously described (Adams, et al. (1998)). […]

[5] = molecular target: T3, ASICβ (Rattus norvegicus, UniProt P55926); assay: Two-electrode voltage-clamp of Xenopus oocytes expressing ASICβ; conditions: pH 5, peptide 50 μM
T3 construct: expressed in transfected cells; host or cells: Xenopus laevis oocytes (nuclear injection of pMT3 plasmid)
T3 sequence (P55926 1-559 isoform P55926-3): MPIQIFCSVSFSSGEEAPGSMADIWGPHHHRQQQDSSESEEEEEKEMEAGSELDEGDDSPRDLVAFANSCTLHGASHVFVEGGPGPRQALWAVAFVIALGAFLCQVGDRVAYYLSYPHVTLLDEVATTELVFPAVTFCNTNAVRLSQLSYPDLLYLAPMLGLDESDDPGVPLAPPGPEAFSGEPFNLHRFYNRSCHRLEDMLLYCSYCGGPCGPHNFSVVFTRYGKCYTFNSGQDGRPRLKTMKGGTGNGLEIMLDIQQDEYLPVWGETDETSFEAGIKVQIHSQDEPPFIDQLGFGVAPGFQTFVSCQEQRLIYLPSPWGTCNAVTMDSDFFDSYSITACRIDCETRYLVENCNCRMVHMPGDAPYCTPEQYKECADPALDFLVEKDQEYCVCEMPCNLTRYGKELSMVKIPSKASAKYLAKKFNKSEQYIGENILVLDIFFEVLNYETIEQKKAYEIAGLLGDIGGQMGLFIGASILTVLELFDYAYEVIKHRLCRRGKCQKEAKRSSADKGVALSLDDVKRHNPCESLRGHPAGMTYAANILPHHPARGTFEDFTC
Text: as §1, with “expression. The validity of the constructs was confirmed by DNA sequencing.” for “expression.”
as §2, §4

[6] = molecular target: T4, BNC1 (Homo sapiens, UniProt Q16515); assay: Two-electrode voltage-clamp of Xenopus oocytes expressing BNC1; conditions: pH 5
T4 construct: expressed in transfected cells; host or cells: Xenopus laevis oocytes (nuclear injection of pMT3 plasmid)
T4 sequence (Q16515 1-512): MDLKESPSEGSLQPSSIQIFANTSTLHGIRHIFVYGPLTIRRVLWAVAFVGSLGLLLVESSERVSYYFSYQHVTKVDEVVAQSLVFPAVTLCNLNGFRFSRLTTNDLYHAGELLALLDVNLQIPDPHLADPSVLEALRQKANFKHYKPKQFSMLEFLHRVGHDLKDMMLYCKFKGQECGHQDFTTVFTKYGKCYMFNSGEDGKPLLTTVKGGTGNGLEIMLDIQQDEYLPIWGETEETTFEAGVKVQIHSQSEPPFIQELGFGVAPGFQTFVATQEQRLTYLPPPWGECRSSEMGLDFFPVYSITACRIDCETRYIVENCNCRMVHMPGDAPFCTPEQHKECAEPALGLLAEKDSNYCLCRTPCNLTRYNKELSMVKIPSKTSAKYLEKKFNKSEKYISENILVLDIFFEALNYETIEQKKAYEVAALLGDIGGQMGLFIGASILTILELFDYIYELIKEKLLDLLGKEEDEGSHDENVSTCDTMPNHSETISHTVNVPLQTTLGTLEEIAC
Text: as §1, with “expression. The validity of the constructs was confirmed by DNA sequencing.” for “expression.”
as §2, §4

How did the “effect of amiloride on FMRFamide-induced sustained current” value ([1]; amiloride 1 mM, FMRFamide 50 μM, pH 5) turn out when `N=C(N)NC(=O)c1nc(Cl)c(N)nc1N` [amiloride] was run?
Its value is “inhibited”.

And the “effect of amiloride on FMRFamide-induced sustained current” value [2]?
Its value is “inhibited”.

Which “effect on H+-gated ASICα current (inactivation, sustained current)” value (shortened to “effect on H+-gated ASICα current”) [1] does the source give for `CN1CC[C@]23c4c5ccc(O)c4O[C@H]2[C@@H](O)C=C[C@H]3[C@H]1C5` [morphine] here?
Its value is “neither morphine nor naloxone altered ASICα current”.

And the “mimicking of the FMRFamide effect on proton-gated current” value ([3]; morphine 50 μM)?
Its value is “did not mimic it”.

For `C=CCN1CC[C@]23c4c5ccc(O)c4O[C@H]2C(=O)CC[C@@]3(O)[C@H]1C5` [naloxone], which “effect of naloxone on FMRFamide-induced ASICα sustained current” value ([1]; naloxone 500 μM applied before FMRFamide 50 μM, pH 5) is on record?
Its value is “neither morphine nor naloxone altered ASICα current”.

What about the “block of the FMRFamide effect on proton-gated current” value ([3]; naloxone 100 μM) of the same compound?
Its value is “did not block the effect of FMRFamide”.

For “A18Famide: mammalian FMRFamide-like peptide, terminates with the sequence PQRFamide (AGEGLNSQFWSLAAPQRF-NH2; UniProt O15130 93-110, looked up)”, which “effect on H+-gated ASICα current” value [1] is on record?
The value was “Neither A18Famide nor MERF altered ASICα current”.

“Phe-Leu-Phe-Gln-Pro-Gln-Arg-Phe-amide [neuropeptide FF]” was tested. Which “effect on inactivation of H+-gated DRASIC currents” value [4] did it give?
The value was “slowed the inactivation of H^+-gated DRASIC currents”.

And the “effect on H+-gated ASICα current” value [1]?
The value was “produced only minor effects on inactivation rate but no sustained current”.

And the “effect on H+-gated ASICα current” value ([1]; listed as Neuropeptide FF)?
Its value is “subtle effects on ASICα currents, slowing inactivation but not generating appreciable sustained current”.

And the “effect on H+-gated ASICβ current (inactivation, sustained current)” value [5]?
The value was “appeared unaffected”.

What about the “size of effects compared with FMRFamide” value ([3]; pH 5, 50 μM each) of the same compound?
The value was “smaller than those generated by FMRFamide”.

What about the “effect on inactivation of proton-gated current and sustained current” value ([3]; pH 5, FMRFamide 50-100 μM, neuropeptide FF 50 μM) of the same compound?
Its value is “altered inactivation of proton-gated DRF currents”.

And the “current generated by agent added alone” value ([3]; without acidification)?
The value was “generated no current on its own”.

And the “effect on acid-gated BNC1 currents” value [6]?
The value was “appeared unaffected”.

For “metenkephalin-Arg-Phe (YGGFMRF; Met-enkephalin-Arg-Phe; UniProt P01210 261-267, looked up) [MERF]”, which “effect on H+-gated ASICα current” value [1] is on record?
Its value is “Neither A18Famide nor MERF altered ASICα current”.
